{"source": "patent US20240116856A1", "about": "(Young BioPharma, LLC, priority 2020, published 2024)", "key": {"[1]": {"conditions": "background; cited from earlier work"}, "[2]": {"system": "Src protein activation in OVCAR-8 cells", "experiment": "Cancer cell immunocytochemistry assay, Phospho-Src (Y416), OVCAR-8", "format": "cell-based, human", "conditions": "YB-1 15 μM, capsaicin 50 μM, 1-6 h", "protocol": "Human cancer cells (15,000 cells/well) in 96 well half area microplate (Cat #3882, Corning) were incubated overnight at 37° C., then compounds or DMSO control were added to the cell culture and incubated at 37° C. for 1-6 h. The cells were sequentially fixed with 4% formalin, permeabilized with 0.5% Triton X-100, blocked with 5% BSA in PBS, incubated with Human Phospho-Src (Y416) Antibody (Cat #MAB2685, R&D Systems) at rt for 2 h, incubated with the secondary antibody Goat Ant-Rabbit IgG H&L (Alexa Fluor 488) (Cat #ab150077, abeam) for 45 min, and incubated with DAPI (Cat #D9542, Sigma-Aldrich) for 5 min. Finally, the cells were washed and covered with PBS. The cell images were visualized on an inverted fluorescence microscope (Leica DMIL Fluorescent Inverted Microscope with Digital Camera, Leica Microsystems). Pictures were taken [FIGS. 14A-C. Green: Human Phospho-Src (Y416), the activated form of the Src protein; Blue: DAPI (stain nucleus of cell)]. The fluorescence intensity values from 5 random cells were averaged, subtracted by the background value (area between cells) and the blank value [the blank control without the Human Phospho-Src (Y416) Antibody], then plotted as percentage against the DMSO control to indicate the effects of compound treatment on the cellular Src kinase phosphorylation levels in the cancer cells (FIGS. 15A-D)."}, "OVCAR-8 cell invasion": {"system": "OVCAR-8 cell invasion", "experiment": "Cancer cell invasion assay, OVCAR-8", "format": "cell-based, human", "conditions": "24 h", "protocol": "A cancer cell invasion assay was developed based on literature protocols (Methods 2005, 37, 208; EMBO J 2002, 21, 6289; Cellular Signalling 2012, 24, 1276.). Membrane matrix gel (Cat #A1413201, ThermoFisher) was diluted in ice-cold, serum-free RPMI 1640 Medium (Cat #31800022, ThermoFisher) at a concentration of 0.5-0.6 mg/mL. Then it was added to the upper compartment (100 μL per cup) of millicell inserts (Cat #PI8P01250, ThermoFisher) placed in a 24-well plate (Part no. 229123, Celltreat). The plate was incubated at 37° C. for 2 h to allow the liquid gel to solidify. RPMI 1640 Medium supplemented with 10% FBS (300 μL) was added to the well of the plate (lower compartment) as attractant, then DMSO or compounds were added. Human cancer cells (1×10^5 cells in 200 μL of RPMI 1640 Medium) were added to the upper compartment of the insert, then DMSO or compounds were added. After the plate was incubated at 37° C. for 24 h, the cells were fixed on the lower side of the insert membrane with 4% formaldehyde and stained with 1% crystal violet (Part no. IS12146, Innovating Science). The invaded cells on the lower side of the filter were counted under an inverted microscope equipped with either a 4× or a 10× objective (FIG. 11). The cell numbers from 5 random views were averaged and plotted as percentage against the DMSO control (FIG. 12A)."}, "[3]": {"experiment": "Rodent eye wiping assay (pungency)"}, "NCI-H460": {"system": "NCI-H460", "experiment": "Human cancer cell growth inhibition assay (ATP assay), NCI-H460", "format": "cell-based", "conditions": "Homo sapiens, NCI-H460, 96 h; 4 days; Means±SEM from three independent experiments; read-out: NCl-H460, IC50"}, "TRPV1": {"biological_target": "T1, TRPV1 (Mus musculus, UniProt Q704Y3)", "T1 construct": "DRG was isolated from male and female mice expressing GCaMP6f in neurons; endogenous in cells; host or cells: dissociated primary DRG neurons from GCaMP6f-expressing mice", "T1 sequence (Q704Y3 whole entry)": "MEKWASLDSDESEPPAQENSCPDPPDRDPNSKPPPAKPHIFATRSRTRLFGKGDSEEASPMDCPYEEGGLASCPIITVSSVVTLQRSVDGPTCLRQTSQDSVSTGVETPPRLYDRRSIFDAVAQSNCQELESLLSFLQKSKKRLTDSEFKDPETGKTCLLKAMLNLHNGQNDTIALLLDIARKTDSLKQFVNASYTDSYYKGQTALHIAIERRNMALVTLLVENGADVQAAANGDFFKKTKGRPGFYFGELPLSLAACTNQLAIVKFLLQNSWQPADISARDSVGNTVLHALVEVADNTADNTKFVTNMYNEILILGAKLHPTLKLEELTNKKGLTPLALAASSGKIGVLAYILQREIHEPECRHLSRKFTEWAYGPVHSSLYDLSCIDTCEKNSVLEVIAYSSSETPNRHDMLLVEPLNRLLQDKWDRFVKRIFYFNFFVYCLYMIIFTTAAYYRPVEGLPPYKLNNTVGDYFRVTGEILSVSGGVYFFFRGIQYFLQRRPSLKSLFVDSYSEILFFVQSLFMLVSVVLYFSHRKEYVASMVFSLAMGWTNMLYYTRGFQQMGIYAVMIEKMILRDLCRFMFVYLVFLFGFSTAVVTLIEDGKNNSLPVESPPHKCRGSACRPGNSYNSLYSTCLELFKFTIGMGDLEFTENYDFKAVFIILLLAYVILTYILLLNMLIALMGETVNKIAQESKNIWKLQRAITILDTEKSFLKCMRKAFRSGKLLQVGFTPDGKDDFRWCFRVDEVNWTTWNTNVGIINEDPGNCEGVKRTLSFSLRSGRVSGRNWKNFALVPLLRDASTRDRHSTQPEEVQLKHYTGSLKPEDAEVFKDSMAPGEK", "experiment": "Ca2+ imaging of primary mouse dorsal root ganglion (DRG) neurons, TRPV1 desensitization", "format": "cell-based", "conditions": "then capsaicin 0.5 μM"}, "[4]": {"conditions": "SubQ; YB-16 3, 6 mg/kg; capsaicin 2 mg/kg"}, "Aqueous solubility": {"experiment": "Aqueous solubility", "format": "physicochemical", "protocol": "Chemical analysis and solubility tests were performed blind to the identity of the samples. Intermediates and final analogs were analyzed by NMR (JEOL 400 MHz NMR) and HPLC/MS (Waters Acquity UPLC with SQD Mass Spec) to confirm structures and purity. Final compounds were purified to achieve >95% purity based on HPLC analysis."}, "OVCAR-8": {"system": "OVCAR-8", "experiment": "Human cancer cell growth inhibition assay (ATP assay), OVCAR-8", "format": "cell-based", "conditions": "Homo sapiens, OVCAR-8, 96 h; 4 days; Means±SEM from three independent experiments; read-out: OVCAR-8, IC50"}, "[5]": {"conditions": "intraplantar; for reduction of first phase spontaneous behavior: 5-10 g dose"}, "[6]": {"conditions": "first treatment capsaicin 0.5 μM, YB-11 0.5 μM or YB-16 1.0 μM, paired t-test"}}, "note": "Entries after “also recorded” stand apart in the source; their conditions may differ. Where two headings read alike, the source gives them in different places."}
{"compound": "COc1cc(CNC(=O)CCCC/C=C/C(C)C)ccc1O", "note": "[Capsaicin, trans-8-methyl-N-vanillyl-6-nonenamide, reference compound]", "values": [{"measurement": "solubility in water", "setting": "[1]", "value": 13, "unit": "µg/mL"}, {"measurement": "cellular Src kinase phosphorylation levels", "setting": "[2]", "value": "time-dependently reduced the cellular Src kinase phosphorylation levels"}, {"measurement": "inhibition of OVCAR-8 cell invasion", "setting": "OVCAR-8 cell invasion", "value": "dose-dependently inhibited"}, {"measurement": "MPP", "setting": "[3]; Moderate Pain-Producing Potency concentration: dose producing 10 normalized eye wipes", "value": 0.041, "unit": "mg/mL"}, {"measurement": "Pungency RPP", "setting": "[3]; Relative Pain-Producing Potency with Capsaicin set to 100", "value": 100}, {"measurement": "Pungency RPP", "setting": "[3]; Table 3 comparison, Capsaicin set to 100", "value": 100}, {"measurement": "IC50", "setting": "NCI-H460", "value": "200 ± 65", "unit": "µM"}, {"measurement": "TRPV1-sensitive neurons showing desensitization", "setting": "TRPV1; first treatment 0.5 μM", "value": 96, "unit": "%"}, {"measurement": "area under the curve of the Ca2+ signal of the second (capsaicin) application", "setting": "TRPV1; [6]", "value": "statistically significant reduction; also recorded: significantly reduced"}, {"measurement": "max Ca2+ signal of the second (capsaicin) application", "setting": "TRPV1; [6]", "value": "statistically significant reduction; also recorded: significantly reduced"}, {"measurement": "effect on hot-plate reaction", "setting": "[4]", "value": "reduced hotplate sensitivity compared to vehicle"}, {"measurement": "solubility", "setting": "Aqueous solubility", "value": 13, "unit": "µg/mL"}, {"measurement": "IC50", "setting": "OVCAR-8", "value": "234 ± 31", "unit": "µM"}, {"measurement": "maximum tolerated dose (MTD)", "setting": "[5]", "value": 5, "unit": "g"}, {"measurement": "reduction of first phase spontaneous behavior", "setting": "[5]; 2 hr prior to formalin", "value": "44% reduction in first phase pain"}, {"measurement": "reduction of first phase spontaneous behavior", "setting": "[5]; 2 hr prior to formalin, listed as capsaicin", "value": 44, "unit": "%"}, {"measurement": "animals with sedation", "setting": "[5]; 10 g dosing group", "value": 20, "unit": "%"}, {"measurement": "effect in the second phase of the formalin test", "setting": "[5]; 2 hr prior to formalin", "value": "not statistically significant"}, {"measurement": "effect on formalin spontaneous pain-like behavior", "setting": "[5]; 2 hr prior to formalin", "value": "reduce spontaneous pain-like behavior in a dose-related manner"}, {"measurement": "animal death and sedation in formalin test", "setting": "[5]; listed as capsaicin", "value": "One of the capsaicin treated animals died"}]}
